Values quoted from earlier work, collected in patent US10799486B2 (NORTIC HOLDINGS INC., priority 2016, dated 2020).

How the values were obtained:
[1] = oral administration
[2] = nimodipine-treated subarachnoid hemorrhage (SAH) patients

half-life equivalent to earlier elimination rates ([1]; man): 1 to 2 h | Cmax in patients with hepatic cirrhosis versus normal ([1]; hepatic cirrhosis): approximately double that in normal | concentration detected in the cerebrospinal fluid [2]: ≤ 12.5 ng/mL
Structure (SMILES): COCCOC(=O)C1=C(C)NC(C)=C(C(=O)OC(C)C)C1c1cccc([N+](=O)[O-])c1 (stereo not drawn) [nimodipine, isopropyl 2-methoxyethyl 1,4-dihydro-2,6-dimethyl-4-(m-nitrophenyl)-3,5-pyridinedicarboxylate]
